Measurements as given in the NIST ThermoML archive (doi:10.1016/j.jct.2018.12.044).
± gives the expanded uncertainty stated by the source.

Settings: Crystal; DTA

- Normal melting temperature: 194.36 ± 6 °C
SMILES: CC[C@H]1OC(=O)[C@H](C)[C@@H](O[C@H]2C[C@@](C)(OC)[C@@H](O)[C@H](C)O2)[C@H](C)[C@@H](O[C@@H]2O[C@H](C)C[C@H](N(C)C)[C@H]2O)[C@](C)(O)C[C@@H](C)[C@@H]2N[C@@H](COCCOC)O[C@H]([C@H]2C)[C@]1(C)O [Dirithromycin]
